Test results published in patent US6482849B1, “Inhibitors of α4β1 mediated cell adhesion” (Tanabe Seiyaku Co., Ltd., priority 1997, dated 2002).
Where a name gives a salt, the structure may show the parent alone.

Legend:
[1] = target: T1, α4β1 integrin (Jurkat cell adhesion to immobilized CS-1 derived peptide CLHPGEILDVPST) (Homo sapiens, UniProt P05556+P13612); assay: Jurkat-CS-1 Assay; type: cell-based; settings: Jurkat cells on CS-1 peptide coated plates
T1 construct: 100 μl of Jurkat cells (2.5×10^6 cells/ml) in DMEM plus BSA; endogenous in cells; host or cells: Jurkat T-cell line
T1 sequence (P13612 34-1032): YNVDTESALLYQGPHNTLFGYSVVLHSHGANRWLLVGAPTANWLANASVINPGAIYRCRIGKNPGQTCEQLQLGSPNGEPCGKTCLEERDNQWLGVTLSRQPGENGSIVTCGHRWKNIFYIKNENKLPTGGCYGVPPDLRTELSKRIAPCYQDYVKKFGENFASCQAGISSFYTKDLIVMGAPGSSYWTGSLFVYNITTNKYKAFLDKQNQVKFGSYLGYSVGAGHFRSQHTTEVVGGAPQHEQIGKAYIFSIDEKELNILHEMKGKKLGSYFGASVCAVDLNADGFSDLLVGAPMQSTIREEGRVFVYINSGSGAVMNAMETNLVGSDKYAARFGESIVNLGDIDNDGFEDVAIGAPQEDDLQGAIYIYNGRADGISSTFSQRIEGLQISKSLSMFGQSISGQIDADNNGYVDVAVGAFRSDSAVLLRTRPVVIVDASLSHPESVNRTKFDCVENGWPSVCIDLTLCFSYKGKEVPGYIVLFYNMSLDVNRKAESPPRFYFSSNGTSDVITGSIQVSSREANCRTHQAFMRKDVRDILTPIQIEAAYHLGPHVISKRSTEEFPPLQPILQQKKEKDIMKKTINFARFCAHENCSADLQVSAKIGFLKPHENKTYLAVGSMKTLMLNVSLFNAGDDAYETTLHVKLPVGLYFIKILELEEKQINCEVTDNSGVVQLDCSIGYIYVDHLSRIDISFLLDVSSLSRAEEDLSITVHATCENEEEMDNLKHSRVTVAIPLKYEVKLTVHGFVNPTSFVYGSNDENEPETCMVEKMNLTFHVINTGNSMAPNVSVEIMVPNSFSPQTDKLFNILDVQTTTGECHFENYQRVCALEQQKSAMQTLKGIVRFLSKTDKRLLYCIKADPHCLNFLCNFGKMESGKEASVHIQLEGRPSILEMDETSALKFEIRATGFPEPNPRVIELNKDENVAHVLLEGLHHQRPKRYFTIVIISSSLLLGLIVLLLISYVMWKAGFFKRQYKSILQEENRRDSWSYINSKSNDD
T1 sequence (P05556 21-798): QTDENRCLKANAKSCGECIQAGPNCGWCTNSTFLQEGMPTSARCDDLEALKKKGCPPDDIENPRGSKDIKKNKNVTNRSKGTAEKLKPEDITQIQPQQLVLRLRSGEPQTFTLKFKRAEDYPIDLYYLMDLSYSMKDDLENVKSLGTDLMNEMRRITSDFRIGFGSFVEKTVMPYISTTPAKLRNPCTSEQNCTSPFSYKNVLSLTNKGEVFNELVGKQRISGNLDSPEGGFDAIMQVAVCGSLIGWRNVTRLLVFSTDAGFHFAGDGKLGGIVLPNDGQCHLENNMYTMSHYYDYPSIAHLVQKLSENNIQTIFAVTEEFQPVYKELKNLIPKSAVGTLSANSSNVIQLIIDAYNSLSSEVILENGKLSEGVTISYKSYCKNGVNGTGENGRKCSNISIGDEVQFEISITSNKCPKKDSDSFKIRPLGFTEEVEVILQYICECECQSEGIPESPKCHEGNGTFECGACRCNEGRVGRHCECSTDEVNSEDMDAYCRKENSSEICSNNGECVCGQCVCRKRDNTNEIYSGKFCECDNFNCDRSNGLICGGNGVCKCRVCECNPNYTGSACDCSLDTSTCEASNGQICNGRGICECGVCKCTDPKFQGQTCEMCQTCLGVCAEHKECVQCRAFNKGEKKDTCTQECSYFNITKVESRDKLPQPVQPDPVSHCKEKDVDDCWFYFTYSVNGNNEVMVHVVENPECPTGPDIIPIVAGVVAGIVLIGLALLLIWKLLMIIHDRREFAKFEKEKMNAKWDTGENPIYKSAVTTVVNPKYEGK
Procedure: The CS-1 derived peptide, CLHPGEILDVPST, and the scrambled control peptide, CLHGPIELVSDPT, were synthesized on a Beckman 990 synthesizer using t-Boc methodology. The peptides were immobilized onto microtiter plates using the heterobifunctional crosslinker 3-(2-pyridyldithio)propionic acid N-hydroxysuccinimide ester (SPDP) as reported by Pierschbacher et al., Proc. Natl. Acad. USA, 80:1224-1227 (1983). Microtiter plates were coated with 20 μg/ml HSA for 2 hr. at room temperature, washed once with PBS and derivatized with 10 μg/ml SPDP for 1 hr. After washing, 100 μl of a 100 μg/ml cysteine containing peptide solution which had been recently dissolved was added to the wells and allowed to crosslink to the plates overnight at 4° C. Unbound peptide was removed from plates by washing with PBS. To block non-reacted sites, the plates are coated with 100 μl of a 2.5 mg/ml BSA solution in PBS for 1 hr. at 37° C. 100 μl of Jurkat cells (2.5×10^6 cells/ml) in DMEM plus BSA (2.5 mg/ml) was mixed with an appropriate concentration of the compound to be tested and the mixture was added to peptide coated dishes and incubated for 1 hr. at 37° C. Generally 100, 20, 5 and 1.25 μM concentrations of the compound were tested.
Following this incubation the plates were washed once with PBS and the attached cells were fixed with 3% paraformaldehyde in PBS and stained with 0.5% toluidine blue in 3.7% formaldehyde. The cells were stained overnight at room temperature and the optical density at 590 nm of toluidine blue stained cells was determined using a vertical pathway spectrophotometer to quantitate attachment (VMAX Kinetic Microplate Reader, Molecular Devices, Menlo Park, Calif.). This procedure is a modification of a previously published method (Cardarelli et al, J. Biol. Chem., 269:18668-18673 (1994) and Cardarelli et al, Proc. Natl. Acad. Sci. USA, 83:2647-2651 (1986)).

[2] = target: T2, α4β1 integrin (Jurkat T-cell adhesion to IL-1 stimulated endothelial cell monolayers) (Homo sapiens, UniProt P05556+P13612); assay: Jurkat-Endothelial Cell Adhesion Assay (Jurkat EC); type: cell-based; settings: Jurkat cells on IL-1 stimulated HUVEC monolayers
T2 construct: a T-cell line, Jurkat, known to express the α4β1 integrin; host or cells: Jurkat T-cell line
T2 sequence (P13612 34-1032): as the sequence (P13612 34-1032) above
T2 sequence (P05556 21-798): as the sequence (P05556 21-798) above
Procedure: The following assay established the activity of the present compounds in inhibiting β1-mediated cell adhesion in a representative in vitro system. This assay measures the adhesive interactions of a T-cell line, Jurkat, known to express the α4β1 integrin, to endothelial monolayers in the presence of test compounds. The test compounds were added in increasing concentrations to T-cells and then the T-cell compound mixture was added to IL-1 stimulated endothelial cell monolayers. The plates were incubated, washed and the percentage of attached cells was quantitated. […] Human umbilical vein endothelial cells were purchased from Clonetics (San Diego, Calif.) at passage number 2. The cells were grown on 0.5% porcine skin gelatin pre-coated flasks (Sigma, St. Louis Mo.) in EGM-UV media (Clonetics, San Diego, Calif.) supplemented with 10% fetal bovine serum. Cells are refed every 2-3 days reaching confluence by day 4 to 6. […] The endothelial cells are not used following passage 6. Am The T-cell line Jurkat was obtained from American Type Tissue Culture Collection (Rockville, Md.) and the cells were cultured in RPMI containing 10% fetal calf serum. The cells were washed twice in Hank's Balanced Salt Solution (HBSS) and resuspended in Dulbecco's […] Eagle's Media (DMEM) containing 2.5 mg/ml Human Serum Albumin (HSA). Jurkat cells (1×10^6 cells/ml) were stained with 10 ng/ml BCECF-AM z z (Molecular Probes, Eugene, Ore.)) in HBSS without phenol red. The cells were loaded with BCECF for 60 minutes in the dark at 37° C., washed 2 times, and resusupended in DMEM-HSA solution.
Confluent endothelial monolayers, grown in 96-well tissue culture plates, were stimulated for 4 hr. at 37° C. with 0.1 ng/ml (˜50 U/ml) recombinant IL-1 (Amgen, Thousand Oaks, Calif.). Following this incubation, the monolayers were washed twice with HBSS and 0.1 ml of DMEM-HSA solution was added. Jurkat cells (5×10^5 cells) were combined with the appropriate concentration of the test compound and 0.1 ml of the Jurkat cell-compound mixture was added to the endothelial cell monolayers. Generally, 100, 20, 5 and 1.25 μM compound concentrations were tested. […] The plates were placed on ice for 5 minutes to allow for Jurkat cell settling and the plates were incubated at 37° C. for 20 minutes. Following this incubation, the monolayers were washed twice with PBS containing 1 mM calcium chloride and 1 mM magnesium chloride and the plates were read using a Millipore Cytofluor 2300 (Marlboro, Mass.). Fluorescence in each well was measured as Arbitrary Fluorescence Units and percent adhesion in the absence of compound was adjusted to 100% and the % adhesion in the presence of compound was calculated. Monolayers were also fixed in 3% paraformaldehyde and evaluated microscopically to verify the adhesion. This procedure is a modification of a previously published method (Cardarelli et al., J. Biol. Chem. 269:18668-18673 (1994)).

Row | SMILES | IC50 [1] [nM] | IC50 [2] [nM]
1 | CC1(C)[C@@H](C(=O)N[C@@H](Cc2ccc(NC(=O)c3c(Cl)cccc3Cl)cc2)C(=O)O)CC[C@@]1(C)C(=O)N[C@H](CCCCN)C(=O)O (relative stereo) [Example 179] | ≤ 80 | 5000 to 10000
2 | C[C@H](NC(=O)[C@]1(C)CC[C@H](C(=O)N[C@@H](Cc2ccc(OCc3c(Cl)cccc3Cl)cc2)C(=O)O)C1(C)C)C(=O)O (relative stereo) [Example 188, [1S-[1α, 3α(R)]]-N-[[3-[[(1-Carboxyethyl)amino]carbonyl]-2,2,3-trimethylcyclopentyl]carbonyl]-O-[(2,6-dichlorophenyl)methyl]-L-tyrosine] | 80 to 500 | 800 to 5000
3 | CC1(C)[C@@H](C(=O)N[C@@H](Cc2ccc(OCc3c(Cl)cccc3Cl)c(Cl)n2)C(=O)O)CC[C@@]1(C)C(=O)O (relative stereo) [Example 194, [1S-[1α(R*),3α]]-α-[[(3-Carboxy-2,2,3-trimethylcyclopentyl)carbonyl]amino]-6-chloro-5-[(2,6-dichlorophenyl)methoxy]-2-pyridinepropanoic acid] | 80 to 500 | 800 to 5000
4 | C[C@H](NC(=O)[C@]1(C)CC[C@H](C(=O)N[C@@H](Cc2ccc(NC(=O)c3c(Cl)cccc3Cl)cc2)C(=O)O)C1(C)C)C(=O)O (relative stereo) [Example 211, [1S-[1α,3α(S*)]]-N-[[3-[[(1-Carboxyethyl)amino]carbonyl]-2,2,3-trimethylcyclopentyl]carbonyl]-4-[(2,6-dichlorobenzoyl)amino]-L-phenylalanine] | ≤ 80 | ≤ 800
5 | CC1(C)[C@@H](C(=O)N[C@@H](Cc2ccc(NC(=O)c3c(Cl)cccc3Cl)cc2)C(=O)O)CC[C@@]1(C)C(=O)N1CCC[C@@H]1C(N)=O (relative stereo) [Example 212, [1S-[1α,3α(S*)]]-N-[3-[[2-(Aminocarbonyl)-1-pyrrolidinyl]carbonyl]-2,2,3-trimethylcyclopentyl]-carbonyl]-4-[(2,6-dichlorobenzoyl)amino]-L-phenylalanine monolithium salt] | 80 to 500 | 5000 to 10000
6 | CC1(C)[C@@H](C(=O)N[C@@H](Cc2ccc(NC(=O)c3c(Cl)cccc3Cl)cc2)C(=O)O)CC[C@@]1(C)C(=O)N1CCC[C@H]1C(N)=O (relative stereo) [Example 213, [1S-[1α,3α(R*)]]-N-[3-[[2-(Aminocarbonyl)-1-pyrrolidinyl]carbonyl]-2,2,3-trimethylcyclopentyl]-carbonyl]-4-[(2,6-dichlorobenzoyl)amino]-L-phenylalanine monosodium salt] | 80 to 500 | 800 to 5000
7 | CNC(=O)[C@@H]1CCCN1C(=O)[C@]1(C)CC[C@H](C(=O)N[C@@H](Cc2ccc(NC(=O)c3c(Cl)cccc3Cl)cc2)C(=O)O)C1(C)C (relative stereo) [Example 215, [1S-[1α,3α(R*)]]-N-[3-[[2-[(Methylamino)carbonyl]-1-pyrrolidinyl]carbonyl]-2,2,3-trimethyl-cyclopentyl]carbonyl]-4-[(2,6-dichlorobenzoyl)amino]-L-phenylalanine monosodium salt] | 80 to 500 | ≤ 800
8 | CC1(C)[C@@H](C(=O)O)CC[C@@]1(C)NC(=O)N[C@]1(C)CC[C@H](C(=O)N[C@@H](Cc2ccc(NC(=O)c3c(Cl)cccc3Cl)cc2)C(=O)O)C1(C)C (relative stereo) [Example 236, [1S-[1α,3α(1S*,3R*)-N-]]-N-[[3[[[(3-Carboxy-1,2,2-trimethylcyclopentyl)amino]carbonyl]-amino]-2,2,3-trimethylcyclopentyl]carbonyl]-4-[(2,6-dichlorobenzoyl)-amino]-L-phenylalanine] | 80 to 500 | ≤ 800
9 | CC1(C)[C@@H](C(=O)N[C@H](Cc2ccc(OCc3c(Cl)cccc3Cl)cn2)C(=O)O)CC[C@@]1(C)C(=O)O (relative stereo) [Example 254, [1S-[1α(R*),3α]]-α-[[(3-Carboxy-2,2,3-trimethylcyclopentyl)carbonyl]amino]-3-[(2,6-dichlorophenyl)methoxy]-6-pyridinepropanoic acid] | 80 to 500 | 800 to 5000
10 | CC1(C)[C@@H](C(=O)N[C@@H](Cc2ccc(OCc3ccc4ccccc4c3)cc2)C(=O)O)CC[C@@]1(C)C(=O)O [Example 10] | 80 to 500 | 800 to 5000
11 | CC1(C)[C@@H](C(=O)N[C@@H](Cc2cn(Cc3ccc(Cl)cc3Cl)cn2)C(=O)O)CC[C@@]1(C)C(=O)O [Example 24] | 80 to 500 | 800 to 5000
12 | CC1(C)[C@@H](C(=O)N[C@@H](Cc2cn(Cc3c(Cl)cccc3Cl)cn2)C(=O)O)CC[C@@]1(C)C(=O)O [Example 26] | 500 to 1000 | 800 to 5000
13 | CC1(C)[C@@H](C(=O)N[C@@H](Cc2cn(Cc3ccc(Cl)cc3)cn2)C(=O)O)CC[C@@]1(C)C(=O)O [Example 28] | 80 to 500 | 800 to 5000
14 | COc1ccc(Cn2cnc(C[C@H](NC(=O)[C@H]3CC[C@@](C)(C(=O)O)C3(C)C)C(=O)O)c2)cc1 [Example 31] | – | 5000 to 10000
15 | CC1(C)[C@@H](C(=O)N[C@@H](Cc2cn(Cc3ccccc3C(F)(F)F)cn2)C(=O)O)CC[C@@]1(C)C(=O)O [Example 36] | 500 to 1000 | 5000 to 10000
16 | CC1(C)[C@@H](C(=O)N[C@@H](Cc2cn(Cc3ccc4ccccc4c3)cn2)C(=O)O)CC[C@@]1(C)C(=O)O [Example 38] | 80 to 500 | 800 to 5000
17 | COC(=O)[C@H](Cc1ccc(NC(=O)c2c(Cl)cccc2Cl)cc1)NC(=O)[C@H]1CC[C@@](C)(C(=O)O)C1(C)C [Example 53, (1S-cis)-N-[(3-Carboxy-2,2,3-trimethylcyclopentyl)carbonyl]-4-[(2,6-dichlorobenzoyl)amino]-L-phenylalanine methyl ester] | 500 to 1000 | 800 to 5000
18 | CC1(C)[C@@H](C(=O)N[C@@H](Cc2ccc(OCc3c(Cl)cccc3Cl)c(O)c2)C(=O)O)CC[C@@]1(C)C(=O)O [Example 65] | 80 to 500 | ≤ 800
19 | COC(=O)[C@H](Cc1ccc(NC(=O)c2c(Cl)cc(Cl)cc2Cl)cc1)NC(=O)[C@H]1CC[C@@](C)(C(=O)O)C1(C)C [Example 92] | ≤ 80 | ≤ 800
20 | COC(=O)[C@H](Cc1ccc(NC(=O)c2ccccc2C)cc1)NC(=O)[C@H]1CC[C@@](C)(C(=O)O)C1(C)C [Example 137] | 80 to 500 | –
21 | CC1(C)[C@H](C(=O)N[C@@H](Cc2ccc(OCc3c(Cl)cccc3Cl)cc2)C(=O)O)CC[C@]1(C)C(=O)O [Example 189, (1R-cis)-N-[(3-Carboxy-2,2,3-trimethylcyclopentyl)carbonyl]-O-[(2,6-dichlorophenyl)methyl]-L-tyrosine] | – | 800 to 5000
